Assay results as given in patent US20120264735A1 (priority 2009, published 2012).
pIC50: −log10 of the molar value.

Biological target: T1, c-Met kinase (recombinant c-Met) (Homo sapiens, UniProt P08581)
T1 construct: 0.27 nM recombinant c-Met
Assay: In vitro kinase assay I (homogeneous time-resolved fluorescence tyrosine kinase assay)
Type: biochemical
Procedure, shortened: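 Biotinylated peptide (0.5 μM) phosphorylated by 0.2 nM recombinant c-Met with 50 μM MgATP, 60 min at room temperature, pH 7.4, 5% DMSO. EDTA stop; HTRF read with Eu-anti-phosphotyrosine antibody and streptavidin-APC. IC50 from 4-parameter logistic fit.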

T1 sequence (P08581 25-1390): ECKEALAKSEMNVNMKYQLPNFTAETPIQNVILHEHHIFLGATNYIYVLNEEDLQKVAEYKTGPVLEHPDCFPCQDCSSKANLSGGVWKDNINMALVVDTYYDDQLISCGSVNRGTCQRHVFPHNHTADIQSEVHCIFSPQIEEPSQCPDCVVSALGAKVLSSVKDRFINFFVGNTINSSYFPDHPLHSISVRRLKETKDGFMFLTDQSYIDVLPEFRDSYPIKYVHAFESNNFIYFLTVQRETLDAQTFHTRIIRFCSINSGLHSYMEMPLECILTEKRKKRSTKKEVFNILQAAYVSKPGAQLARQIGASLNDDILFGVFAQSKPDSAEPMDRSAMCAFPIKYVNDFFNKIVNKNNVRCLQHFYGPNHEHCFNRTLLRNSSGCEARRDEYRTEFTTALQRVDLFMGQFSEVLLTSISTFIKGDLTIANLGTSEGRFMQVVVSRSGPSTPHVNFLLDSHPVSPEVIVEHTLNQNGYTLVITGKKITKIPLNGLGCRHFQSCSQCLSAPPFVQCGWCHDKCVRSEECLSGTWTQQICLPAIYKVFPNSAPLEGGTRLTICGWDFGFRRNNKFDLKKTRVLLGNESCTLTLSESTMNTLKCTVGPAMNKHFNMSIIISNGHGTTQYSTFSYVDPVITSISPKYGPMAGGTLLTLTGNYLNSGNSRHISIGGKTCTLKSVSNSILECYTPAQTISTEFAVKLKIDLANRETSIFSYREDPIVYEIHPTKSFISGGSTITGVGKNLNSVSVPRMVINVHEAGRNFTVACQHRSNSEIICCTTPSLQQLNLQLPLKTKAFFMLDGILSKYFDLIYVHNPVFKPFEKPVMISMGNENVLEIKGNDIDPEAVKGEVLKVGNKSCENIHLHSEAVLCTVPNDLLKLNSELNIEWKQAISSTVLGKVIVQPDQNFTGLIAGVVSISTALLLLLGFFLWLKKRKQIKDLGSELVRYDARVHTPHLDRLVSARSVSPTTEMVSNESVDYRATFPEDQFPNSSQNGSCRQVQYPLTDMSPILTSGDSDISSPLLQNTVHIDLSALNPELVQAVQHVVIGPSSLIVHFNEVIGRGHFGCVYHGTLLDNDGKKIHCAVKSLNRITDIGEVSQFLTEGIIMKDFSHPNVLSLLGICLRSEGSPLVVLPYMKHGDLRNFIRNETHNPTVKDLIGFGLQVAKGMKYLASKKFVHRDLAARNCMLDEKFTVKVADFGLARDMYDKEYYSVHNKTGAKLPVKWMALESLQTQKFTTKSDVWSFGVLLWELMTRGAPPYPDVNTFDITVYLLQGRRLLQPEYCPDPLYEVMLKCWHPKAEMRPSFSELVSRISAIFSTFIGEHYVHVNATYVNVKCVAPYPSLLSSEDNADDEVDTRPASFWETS

| pIC50 | SMILES |
| --- | --- |
| 6.00 to 7.00 | CCCC(=O)Nc1cccc(Cc2nn(-c3cnn(C)c3)ccc2=O)c1 [Example 634, N-(3-{[1-(1-methyl-1H-pyrazol-4-yl)-4-oxo-1,4-dihydropyridazin-3-yl]methyl}phenyl)butanamide] |
| > 7.00 | Cn1cc(-n2ccc(=O)c(Cc3cccc(NC(=O)OCC(F)(F)CN)c3)n2)cn1 [Example 614, 3-Amino-2,2-difluoropropyl (3-{[1-(1-methyl-1H-pyrazol-4-yl)-4-oxo-1,4-dihydropyridazin-3-yl]methyl}phenyl)carbamate] |
| > 7.00 | O=C(Nc1cccc(Cc2nn(-c3cc(F)cc(F)c3)ccc2=O)c1)OCCOCC(F)(F)F [Example 595, 2-(2,2,2-trifluoroethoxy)ethyl (3-{[1-(3,5-difluorophenyl)-4-oxo-1,4-dihydropyridazin-3-yl]methyl}phenyl)carbamate] |
| > 7.00 | Cn1cc(-n2ccc(=O)c(Cc3cccc(NC(=O)OCC4CC(C)(C)OC(C)(C)C4)c3)n2)cn1 [Example 609, (2,2,6,6-tetramethyltetra-hydro-2H-pyran-4-yl)methyl (3-{[1-(1-methyl-1H-pyrazol-4-yl)-4-oxo-1,4-dihydropyridazin-3-yl]methyl}phenyl)carbamate] |
| 5.52 to 6.00 | CCCn1cnc(-c2cccc(C(C)c3nn(-c4cnn(C)c4)ccc3=O)c2)n1 (single isomer, unassigned) [Example 684, 1-(1-methyl-1H-pyrazol-4-yl)-3-{(1S or R)-1-[3-(1-propyl-1H-1,2,4-triazol-3-yl)phenyl]ethyl} pyridazin-4(1H)-one] |
| 6.00 to 7.00 | Cn1cc(-n2ccc(=O)c(Cc3cccc(-c4ncc(CO)s4)c3)n2)cn1 [Example 676, 3-{3-[5-(hydroxymethyl)-1,3-thiazol-2-yl]benzyl}-1-(1-methyl-1H-pyrazol-4-yl)pyridazin-4(1H)-one] |
| > 7.00 | Cn1cc(-n2ccc(=O)c(Cc3cccc(-c4ncc([C@]5(F)CCNC[C@@H]5O)cn4)c3)n2)cn1 (racemic) [Example 749, rac-3-({3-[5-(trans-4-Fluoro-3-hydroxypiperidin-4-yl)pyrimidin-2-yl]benzyl}-1-(1-methyl-1H-pyrazol-4-yl)pyridazin-4(1H)-one] |
| > 7.00 | CC1CC1COC(=O)Nc1cccc(Cc2nn(-c3cnn(C)c3)ccc2=O)c1 (mixture of isomers) [Example 574, (2-methylcyclopropyl)methyl (3-{[1-(1-methyl-1H-pyrazol-4-yl)-4-oxo-1,4-dihydropyridazin-3-yl]methyl}phenyl)carbamate] |
| 5.52 to 6.00 | O=c1ccn(-c2ccccc2)nc1Cc1cccc(-c2ccccn2)c1 [Example 671, 1-phenyl-3-(3-pyridin-2-ylbenzyl) pyridazin-4(1H)-one] |
| > 7.00 | CC(C)COC(=O)Nc1cccc(Cc2nn(-c3cnn(CCCC(=O)NCC(C)(C)O)c3)ccc2=O)c1 [Example 705, 2-methylpropyl (3-{[1-(1-{4-[(2-hydroxy-2-methylpropyl)amino]-4-oxobutyl}-1H-pyrazol-4-yl)-4-oxo-1,4-dihydropyridazin-3-yl]methyl}phenyl) carbamate] |
| > 7.00 | Cn1cc(-n2ccc(=O)c(Cc3cccc(-c4ncn(CCCC5CCCO5)n4)c3)n2)cn1 (racemic) [Example 721, rac-1-(1-methyl-1H-pyrazol-4-yl)-3-(3-{1-[3-(tetrahydrofuran-2-yl)propyl]-1H-1,2,4-triazol-3-yl}benzyl)pyridazin-4(1H)-one] |
| > 7.00 | CN(C)C(=O)CCOC(=O)Nc1cccc(Cc2nn(-c3cc(F)cc(F)c3)ccc2=O)c1 [Example 589, 3-(dimethylamino)-3-oxopropyl (3-{[1-(3,5-difluorophenyl)-4-oxo-1,4-dihydropyridazin-3-yl]methyl}phenyl)carbamate] |
| > 7.00 | CNC(=O)CCn1cc(-n2ccc(=O)c(Cc3cccc(NC(=O)OCC(C)C)c3)n2)cn1 [Example 702, 2-methylpropyl {3-[(1-{1-[3-(methylamino)-3-oxopropyl]-1H-pyrazol-4-yl}-4-oxo-1,4-dihydropyridazin-3-yl)methyl]phenyl} carbamate] |

Continued, compound first:

| SMILES | pIC50 |
| --- | --- |
| Cn1cc(-n2ccc(=O)c(Cc3cccc(-c4ncc(CN5CCC(F)C5)cn4)c3)n2)cn1 (racemic) [Example 431, rac-3-(3-{5-[(3-fluoropyrrolidin-1-yl)methyl]pyrimidin-2-yl}benzyl)-1-(1-methyl-1H-pyrazol-4-yl)pyridazin-4(1H)-one] | > 7.00 |
| Cn1cc(-n2ccc(=O)c(Cc3cccc(-c4ncc(-c5ccn(C)n5)cn4)c3)n2)cn1 [Example 421, 1-(1-methyl-1H-pyrazol-4-yl)-3-{3-[5-(1-melhyl-1H-pyrazol-3-yl)pyrimidin-2-yl]benzyl}pyridazin-4(1H)-one] | > 7.00 |
| CN1CCC(COc2cnc(-c3cccc(Cc4nn(-c5cccc(C#N)c5)ccc4=O)c3)nc2)CC1 [Example 171, 3-[3-(3-{5-[(1-methylpiperidin-4-yl)methoxy]pyrimidin-2-yl}benzyl)-4-oxopyridazin-1(4H)-yl]benzonitrile] | > 7.00 |
| CCCN(C)c1cnc(-c2cccc(Cc3nn(-c4cnn(C)c4)ccc3=O)c2)nc1 [Example 456, 3-(3-{5-[Methyl(propyl)amino]pyrimidin-2-yl}benzyl)-1-(1-methyl-1H-pyrazol-4-yl)pyridazin-4(1H)-one] | > 7.00 |
| O=C(Nc1cccc(Cc2nn(-c3cc(F)c(F)c(F)c3)ccc2=O)c1)OCCCn1cccc1 [Example 548, 3-(1H-pyrrol-1-yl)propyl (3-{[4-oxo-1-(3,4,5-trifluorophenyl)-1,4-dihydropyridazin-3-yl]methyl}phenyl)carbamate] | > 7.00 |
| COCCOC(=O)Nc1cccc(Cc2nn(-c3cc(F)cc(Cl)c3)ccc2=O)c1 [Example 509, 2-methoxyethyl (3-{[1-(3-chloro-5-fluorophenyl)-4-oxo-1,4-dihydropyridazin-3-yl]methyl}phenyl)carbamate] | > 7.00 |
| CCOc1cnc(-c2cccc(Cc3nn(-c4cccc(Br)c4)ccc3=O)c2)nc1 [Example 143, 1-(3-bromophenyl)-3-[3-(5-ethoxypyrimidin-2-yl)benzyl]pyridazin-4(1H)-one] | > 7.00 |
| Cn1cc(-n2ccc(=O)c(Cc3cccc(-c4ncc(N5CCN(C(=O)OC(C)(C)C)CC5)cn4)c3)n2)cn1 [Example 471, tert-butyl 4-[2-(3-{[1-(1-methyl-1H-pyrazol-4-yl)-4-oxo-1,4-dihydro-pyridazin-3-yl]methyl}phenyl)pyrimidin-5-yl]piperazine-1-carboxylate] | > 7.00 |
| COc1cnc(-c2cccc(Cc3nn(-c4ccc(OC)nc4)ccc3=O)c2)nc1 [Example 33, 1-(6-methoxypyridin-3-yl)-3-[3-(5-methoxypyrimidin-2-yl)benzyl]pyridazin-4(1H)-one] | > 7.00 |
| CN(C)CCOC(=O)Nc1cccc(Cc2nn(-c3cc(F)c(F)c(F)c3)ccc2=O)c1 [Example 546, 2-(dimethylamino)ethyl (3-{[4-oxo-1-(3,4,5-trifluorophenyl)-1,4-dihydropyridazin-3-yl]methyl}phenyl)carbamate] | > 7.00 |
| CC(c1cccc(-c2ncc(OC(C)C(C)(C)O)cn2)c1)c1nn(-c2cnn(C)c2)ccc1=O (single isomer, unassigned) [Example 384, 3-{(1R or S)-1-[3-(5-{[(1R or S)-2-hydroxy-1,2-dimethylpropyl]oxy}pyrimidin-2-yl)phenyl]ethyl}-1-(1-methyl-1H-pyrazol-4-yl)pyridazin-4(1H)-one] | > 7.00 |
| CCCOC(=O)Nc1cccc(Cc2nn(-c3cccc(Br)c3)ccc2=O)c1 [Example 12, propyl (3-{[1-(3-bromophenyl)-4-oxo-1,4-dihydropyridazin-3-yl]methyl}phenyl)carbamate] | > 7.00 |
| CCCn1cc(-n2ccc(=O)c(Cc3cccc(-c4ncc(OC)cn4)c3)n2)cn1 [Example 114, 3-[3-(5-methoxypyrimidin-2-yl)benzyl]-1-(1-propyl-1H-pyrazol-4-yl)pyridazin-4(1H)-one] | > 7.00 |
| CC(C)c1nc(COc2cnc(-c3cccc(Cc4nn(-c5cnn(C)c5)ccc4=O)c3)nc2)no1 [Example 283, 3-[3-(5-{[5-(1-methylethyl)-1,2,4-oxadiazol-3-yl]methoxy}pyrimidin-2-yl)benzyl]-1-(1-methyl-1H-pyrazol-4-yl)pyridazin-4(1H)-one] | > 7.00 |
| Cn1cc(-n2ccc(=O)c(Cc3cccc(-c4ncc(-c5cnoc5)cn4)c3)n2)cn1 [Example 423, 3-[3-(5-isoxazol-4-ylpyrimidin-2-yl)benzyl]-1-(1-methyl-1H-pyrazol-4-yl)pyridazin-4(1H)-one] | > 7.00 |
| COCCn1cnc(-c2cccc(Cc3nn(-c4cnn(C)c4)ccc3=O)c2)n1 [Example 66, 3-{3-[1-(2-methoxyethyl)-1H-1,2,4-triazol-3-yl]benzyl}-1-(1-methyl-1H-pyrazol-4-yl)pyridazin-4(1H)-one] | > 7.00 |
| CCOC(=O)Nc1cccc(Cc2nn(-c3cc(F)cc(F)c3)ccc2=O)c1 [Example 11, ethyl (3-{[1-(3,5-difluorophenyl)-4-oxo-1,4-dihydropyridazin-3-yl]methyl}phenyl)carbamate] | > 7.00 |
| COCCOc1cnc(-c2cccc(Cc3nn(-c4cccc(C#N)c4)ccc3=O)c2)nc1 [Example 319, 3-[3-{3-[5-(2-methoxyethoxy)pyrimidin-2-yl]benzyl}-4-oxopyridazin-1(4H)-yl]benzonitrile] | > 7.00 |
| CCc1cnc(-c2cccc(C(C)c3nn(-c4cnn(C)c4)ccc3=O)c2)nc1 (single isomer, unassigned) [Example 236, 3-{(1S or R)-1-[3-(5-ethylpyrimidin-2-yl)phenyl]ethyl}-1-(1-methyl-1H-pyrazol-4-yl)pyridazin-4(1H)-one] | > 7.00 |
| Cn1cc(-n2ccc(=O)c(Cc3cccc(-c4ncc(OCC5COCCO5)cn4)c3)n2)cn1 (single isomer, unassigned) [Example 347, 3-(3-{5-[(2R or-S)-1,4-dioxan-2-ylmethoxy]pyrimidin-2-yl}benzyl)-1-(1-methyl-1H-pyrazol-4-yl)pyridazin-4(1H)-one] | > 7.00 |
